BindingDB's records for doi:10.1016/j.bmc.2011.10.064 (Saitama University, 2011)

Assays:
[1] = Inhibition of Human influenza virus A/PR/8/34 (H1N1) hemagglutininin activity in chicken erythrocytes after 1 hr
[2] = Inhibition of Human influenza virus A/Aichi/2/68 (H3N2) hemagglutininin activity in chicken erythrocytes after 1 hr

SMILES	IC50 [1] [µM]	IC50 [2] [µM]
C=CC(=O)N[C@H]1[C@H]([C@H](O)[C@H](O)CO)O[C@@](SCCCCCCCCCCCC)(C(=O)O)C[C@@H]1O	7.81	3.9
C=CC(=O)N[C@H]1[C@H]([C@H](O)[C@H](O)CO)OC(O)(C(=O)O)C[C@@H]1O (stereo partly specified)	> 250	> 250
C=CC(=O)NCCCCCC(=O)N[C@H]1[C@H]([C@H](O)[C@H](O)CO)O[C@@](SCCCCCCCCCCCC)(C(=O)O)C[C@@H]1O	7.81	7.81
